Results reported in patent publication US20120129843A1, “PYRIDYL-THIAZOLYL INHIBITORS OF PRO-MATRIX METALLOPROTEINASE ACTIVATION” (priority 2010, published 2012).
Where a name gives a salt, the structure may show the parent alone.

Assays:
[1] = biological target: T1, full-length proMMP9(1-707) (SEQ ID NO:1), activation by catalytic MMP3 (Homo sapiens, UniProt P14780, R574P); assay: proMMP9/MMP3 P126 Activation Assay; format: biochemical
T1 construct: made in house; host or cells: HEK293 (proMMP9, secreted); E. coli (MMP3)
Description: proMMP9/MMP3 P126 Activation Assay
The reaction volume was 50 μL. […] Reactivity of residual MMP3 towards P-126 substrate was minimal under these conditions.

[2] = biological target: T2, proMMP13(1-268) (SEQ ID NO:7) (Homo sapiens, UniProt P45452); assay: ThermoFluor binding assay with proMMP13(1-268)
T2 construct: 6xHis (C); made in house; host or cells: HEK293 (transient, secreted)
Description: The ThermoFluor® (TF) assay is a 384-well plate-based binding assay that measures thermal stability of proteins (Biomol Screen 2001, 6, 429-40; Biochemistry 2005, 44, 5258-66). The experiments were carried out using instruments available from Johnson & Johnson Pharmaceutical Research & Development, LLC. TF dye used in all experiments was […] (1,8-ANS) (Invitrogen: A-47).
Compounds were arranged in a pre-dispensed plate (Greiner Bio-one: 781280), wherein compounds were serially diluted in 100% DMSO across 11 columns within a series. Columns 12 and 24 were used as DMSO reference and contained no compound. For multiple compound concentration-response experiments, the compound aliquots ([…]) were robotically predispensed directly into black 384-well polypropylene PCR microplates (Abgene: TF-0384/k) using a Cartesian Hummingbird liquid handler (DigiLab, Holliston, Mass.). Following compound dispense, protein and dye solutions were added to achieve the final assay volume of 3 μL. The assay solutions were overlayed with 1 μL of silicone oil (Fluka, type DC 200: 85411) to prevent evaporation.
Assay plates were robotically loaded onto a thermostatically controlled PCR-type thermal block and then heated from 40 to 90° C. at a ramp-rate of 1° C./min for all experiments. Fluorescence was measured by continuous illumination with UV light (Hamamatsu LC6) supplied via fiber optics and filtered through a band-pass filter (380-400 nm; >60D cutoff). Fluorescence emission of the entire 384-well plate was detected by measuring light intensity using a CCD camera (Sensys, Roper Scientific) filtered to detect 500±25 nm, resulting in simultaneous and independent readings of all 384 wells. A single image with 20-sec exposure time was collected at each temperature, and the sum of the pixel intensity in a given area of the assay plate was recorded vs temperature and fit to standard equations to yield the Tm (J Biomol Screen 2001, 6, 429-40).
Thermodynamic parameters necessary for fitting compound binding for each proMMP were estimated by differential scanning calorimetry (DSC) and from ThermoFluor® data. The heat capacity of unfolding for each protein was estimated from the molecular weight and from ThermoFluor® dosing data.
ThermoFluor® with proMMP13(1-268) (SEQ ID NO: 7)
The proMMP13(1-268) (SEQ ID NO:7) protein sample preparations included a desalting buffer exchange step via a PD-10 gravity column (GE Healthcare). The desalting buffer exchange was performed prior to diluting the protein to the final assay concentration of 3.5 μM. The concentration of proMMP13(1-268) (SEQ ID NO:7) was estimated spectrophotometrically based on a calculated extinction coefficient of ε280=37000 M^−1cm^−1, a calculated molecular weight of 30.8 kDa, and calculated pI of 5.33. ThermoFluor® reference conditions were defined as follows: 100 μg/mL proMMP13(1-268) (SEQ ID NO:7), 25 μM 1,8-ANS, pH 7.0 Buffer (50 mM HEPES pH 7.0, 100 mM NaCl, 0.001% Tween-20, 2.5 mM MgCl2, 300 μM CaCl2). The thermodynamic parameters for proMMP13(1-268) (SEQ ID NO:7) are as follows: Tm (° C.)=67 (+/−0.1), ΔUH(Tm) (cal mol^−1)=107000(+/−5000), ΔUS(Tm) (cal mol^−1 K^−1)=318, ΔUCp (cal mol^−1 K^−1)=2600.

[3] = biological target: T3, proMMP9(67-444;ΔFnII) (SEQ ID NO:5) (Homo sapiens, UniProt P14780, DEL216-390); assay: ThermoFluor binding assay with proMMP9(67-444;ΔFnII)
T3 construct: start methionine (N); made in house; host or cells: E. coli BL21(DE3) RIL
T3 sequence (P14780 with tags, fused parts or gaps DEL216-390): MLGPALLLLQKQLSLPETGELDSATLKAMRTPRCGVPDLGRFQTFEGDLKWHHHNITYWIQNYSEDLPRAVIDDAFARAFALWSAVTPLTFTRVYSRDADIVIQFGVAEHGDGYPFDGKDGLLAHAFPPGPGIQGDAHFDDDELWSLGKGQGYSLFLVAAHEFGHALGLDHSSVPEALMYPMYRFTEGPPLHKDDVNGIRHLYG
In short: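 Thermal shift with 3.5 μM desalted proMMP9(67-444;ΔFnII) and 50 μM 1,8-ANS in 50 mM HEPES pH 7.0, 100 mM NaCl, 0.001% Tween-20, 2.5 mM MgCl2, 300 μM CaCl2; compounds serially diluted. Heated 40–90 °C at 1 °C/min, fluorescence at 500 nm; Tm fit, binding modelled using DSC-derived thermodynamic parameters.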

[4] = biological target: T4, proMMP9(20-445;ΔFnII) (SEQ ID NO:6) (Homo sapiens, UniProt P14780, DEL216-390); assay: ThermoFluor binding assay with proMMP9(20-445;ΔFnII)
T4 construct: start methionine (N); made in house; host or cells: E. coli BL21(DE3) RIL
T4 sequence (P14780 with tags, fused parts or gaps DEL216-390): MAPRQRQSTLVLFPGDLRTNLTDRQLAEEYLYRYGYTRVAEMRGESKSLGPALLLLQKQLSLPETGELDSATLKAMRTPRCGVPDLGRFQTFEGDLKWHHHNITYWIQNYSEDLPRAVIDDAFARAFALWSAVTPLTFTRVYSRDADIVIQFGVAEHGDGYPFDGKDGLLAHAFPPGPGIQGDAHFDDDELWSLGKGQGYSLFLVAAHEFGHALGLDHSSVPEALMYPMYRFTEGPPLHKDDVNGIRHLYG
In short: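 Thermal-shift binding using 2.8 μM proMMP9(20-445;ΔFnII) with 50 μM 1,8-ANS in 50 mM HEPES pH 7.0, 100 mM NaCl, 0.001% Tween-20, 2.5 mM MgCl2, 300 μM CaCl2. Compound serially diluted; heated 40–90 °C at 1 °C/min, fluorescence 500 nm. Tm shifts fitted using DSC/ThermoFluor-derived thermodynamic parameters.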

T1 sequence (P14780 20-707 R574P): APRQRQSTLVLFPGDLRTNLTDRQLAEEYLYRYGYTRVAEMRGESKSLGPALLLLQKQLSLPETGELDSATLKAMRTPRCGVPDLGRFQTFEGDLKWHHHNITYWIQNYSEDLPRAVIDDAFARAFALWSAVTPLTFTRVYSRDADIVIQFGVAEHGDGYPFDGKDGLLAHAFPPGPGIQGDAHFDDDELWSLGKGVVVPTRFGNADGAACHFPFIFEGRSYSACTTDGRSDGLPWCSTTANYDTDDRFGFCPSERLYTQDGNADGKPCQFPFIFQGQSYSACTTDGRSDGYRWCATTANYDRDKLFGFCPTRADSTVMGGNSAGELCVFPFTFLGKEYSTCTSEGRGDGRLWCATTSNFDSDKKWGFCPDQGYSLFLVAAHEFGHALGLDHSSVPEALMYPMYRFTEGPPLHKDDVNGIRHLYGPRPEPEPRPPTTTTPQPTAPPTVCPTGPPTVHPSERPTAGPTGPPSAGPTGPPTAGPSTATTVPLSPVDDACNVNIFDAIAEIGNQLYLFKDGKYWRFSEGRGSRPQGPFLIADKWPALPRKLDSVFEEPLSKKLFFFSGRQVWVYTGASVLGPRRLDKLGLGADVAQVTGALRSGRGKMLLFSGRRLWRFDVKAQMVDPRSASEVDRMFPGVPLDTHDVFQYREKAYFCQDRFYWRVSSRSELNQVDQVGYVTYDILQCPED

Row | SMILES | IC50 [1] [µM] | Kd [2] [µM] | Kd [3] [µM] | Kd [4] [µM]
1 | CC(C)Oc1ccc(C(N)=O)cc1Nc1nc(-c2cccnc2)cs1 [Example 1, 4-Isopropoxy-3-(4-pyridin-3-yl-thiazol-2-ylamino)-benzamide.HBr] | 0.36 | 0.31 | 1 | 0.16
2 | CCOc1ccc(C(N)=O)cc1Nc1nc(-c2cccnc2)cs1 [Example 2, 4-Ethoxy-3-(4-pyridin-3-yl-thiazol-2-ylamino)-benzamide.TFA] | 0.74 | 2.6 | 1.5 | 0.73
3 | Cc1cc2cccc(Nc3nc(-c4cccnc4)cs3)c2o1 [Example 3, (2-Methyl-benzofuran-7-yl)-(4-pyridin-3-yl-thiazol-2-yl)-amine] | ~5 | > 95 | 38 | 33
4 | COc1ccc(C(N)=O)cc1Nc1nc(-c2cccnc2)cs1 [Example 4, 4-Methoxy-3-(4-pyridin-3-yl-thiazol-2-ylamino)-benzamide.HBr] | 5 | 12 | 3.3 | 1.3
5 | COc1ccc(CC(N)=O)cc1Nc1nc(-c2cccnc2)cs1 [Example 5, 2-[4-Methoxy-3-(4-pyridin-3-yl-thiazol-2-ylamino)-phenyl]-acetamide] | ~19 | > 95 | 33 | 53
6 | COc1ccc(C#N)cc1Nc1nc(-c2cccnc2)cs1 [Example 9, 4-Methoxy-3-(4-pyridin-3-yl-thiazol-2-ylamino)-benzonitrile.HBr] | 2.6 | 18 | 43 | 7.4
7 | COc1ccc(S(N)(=O)=O)cc1Nc1nc(-c2cccnc2)cs1 [Example 12, 4-Methoxy-3-(4-pyridin-3-yl-thiazol-2-ylamino)-benzenesulfonamide.TFA] | > 20 | > 95 | 29 | 17
8 | CC(C)Oc1ccc(S(N)(=O)=O)cc1Nc1nc(-c2cccnc2)cs1 [Example 13, 4-Isopropoxy-3-(4-pyridin-3-yl-thiazol-2-ylamino)-benzenesulfonamide.TFA] | 2.4 | 1.2 | 10 | 2.3
9 | CC(C)Oc1ccc(C(N)=O)cc1Nc1nc(-c2ccccn2)cs1 [Example 14, 4-Isopropoxy-3-(4-pyridin-2-yl-thiazol-2-ylamino)-benzamide] | 0.5 | 0.93 | 1.9 | 0.21
10 | CC(C)Oc1ccc(C(N)=O)cc1Nc1nc(-c2ccncc2)cs1 [Example 15, 4-Isopropoxy-3-(4-pyridin-4-yl-thiazol-2-ylamino)-benzamide.HBr] | 0.28 | 0.73 | 0.47 | 0.25
11 | CC(C)Oc1ccc(C(=O)O)cc1Nc1nc(-c2cccnc2)cs1 [Example 17, 4-Isopropoxy-3-(4-pyridin-3-yl-thiazol-2-ylamino)-benzoic acid.TFA] | 4.3 | 1.5 | 5.7 | 3.6
12 | CCOc1ccc(-c2ncco2)cc1Nc1nc(-c2cccnc2)cs1 [Example 18, (2-Ethoxy-5-oxazol-2-yl-phenyl)-(4-pyridin-3-yl-thiazol-2-yl)-amine.HBr] | 0.67 | 3.3 | 0.66 | 26

More lines, now with the values ahead:

Row | IC50 [1] [µM] | Kd [2] [µM] | Kd [3] [µM] | Kd [4] [µM] | SMILES
13 | ~4 | 6.2 | 14 | 27 | Cc1cc(C)c(-c2csc(Nc3cc(C(N)=O)ccc3OC(C)C)n2)c(C)n1 [Example 19, 4-Isopropoxy-3-[4-(2,4,6-trimethyl-pyridin-3-yl)-thiazol-2-ylamino]-benzamide.TFA]
14 | 0.64 | 0.23 | 3.3 | 0.34 | CC(C)Oc1ccc(C(N)=O)cc1Nc1nc(-c2ccc(Br)nc2)cs1 [Example 20, 4-Isopropoxy-3-[4-(6-bromo-pyridin-3-yl)-thiazol-2-ylamino]-benzamide.TFA]
15 | 0.6 | 1.4 | 4.1 | 0.21 | CC(C)Oc1ccc(C(N)=O)cc1Nc1nc(-c2ccnc(Cl)c2)cs1 [Example 21, 3-[4-(2-Chloro-pyridin-4-yl)-thiazol-2-ylamino]-4-isopropoxy-benzamide.TFA]
16 | 4.6 | 2.9 | 5.7 | 1.3 | CC(C)Oc1ccc(C(N)=O)cc1Nc1nc(-c2cncc(Br)c2)cs1 [Example 22, 3-[4-(5-Bromo-pyridin-3-yl)-thiazol-2-ylamino]-4-isopropoxy-benzamide.TFA]
17 | ~14 | 12 | 18 | 11 | CC(C)Oc1ccc(C(N)=O)cc1Nc1nc(-c2cnccc2C(C)C)cs1 [Example 23, 4-Isopropoxy-3-[4-(4-isopropyl-pyridin-3-yl)-thiazol-2-ylamino]-benzamide.TFA]
18 | ~3 | 3.7 | > 95 | 2.2 | Cc1nc(C(F)(F)F)ccc1-c1csc(Nc2cc(C(N)=O)ccc2OC(C)C)n1 [Example 24, 4-Isopropoxy-3-[4-(2-methyl-6-trifluoromethyl-pyridin-3-yl)-thiazol-2-ylamino]-benzamide.TFA]
19 | 0.46 | 1.8 | 2 | 0.17 | COc1ccc(-c2csc(Nc3cc(C(N)=O)ccc3OC(C)C)n2)cn1 [Example 25, 4-Isopropoxy-3-[4-(6-methoxy-pyridin-3-yl)-thiazol-2-ylamino]-benzamide.TFA]
20 | > 20 | > 95 |  | 36 | NS(=O)(=O)c1ccc(OC(F)(F)F)c(Nc2nc(-c3cccnc3)cs2)c1 [Example 59, 3-(4-Pyridin-3-yl-thiazol-2-ylamino)-4-trifluoromethoxy-benzenesulfonamide]
